According to ChEMBL document CHEMBL1909046, “DrugMatrix in vitro pharmacology data”:

What was measured:
[1] = DRUGMATRIX: ATPase, Na+/K+ enzyme inhibition (substrate: ATP); type: tissue-based, Sus scrofa, Heart; settings: Not Active = under 50% inhibition at 10 µM
[2] = DRUGMATRIX: beta-Lactamase enzyme inhibition (substrate: Nitrocefin); design: species or system Bacillus cereus; settings: Not Active = under 50% inhibition at 10 µM
[3] = biological target: T1, 3-hydroxy-3-methylglutaryl-coenzyme A reductase (Homo sapiens, UniProt P04035); design: species or system Escherichia coli;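 also: enzyme inhibition assay of HMG-CoA reductase using radiolabeled [14C]HMG-CoA as substrate; in other assays of this panel Not Active means under 50% inhibition at 10 µM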
T1 sequence (P04035 whole entry): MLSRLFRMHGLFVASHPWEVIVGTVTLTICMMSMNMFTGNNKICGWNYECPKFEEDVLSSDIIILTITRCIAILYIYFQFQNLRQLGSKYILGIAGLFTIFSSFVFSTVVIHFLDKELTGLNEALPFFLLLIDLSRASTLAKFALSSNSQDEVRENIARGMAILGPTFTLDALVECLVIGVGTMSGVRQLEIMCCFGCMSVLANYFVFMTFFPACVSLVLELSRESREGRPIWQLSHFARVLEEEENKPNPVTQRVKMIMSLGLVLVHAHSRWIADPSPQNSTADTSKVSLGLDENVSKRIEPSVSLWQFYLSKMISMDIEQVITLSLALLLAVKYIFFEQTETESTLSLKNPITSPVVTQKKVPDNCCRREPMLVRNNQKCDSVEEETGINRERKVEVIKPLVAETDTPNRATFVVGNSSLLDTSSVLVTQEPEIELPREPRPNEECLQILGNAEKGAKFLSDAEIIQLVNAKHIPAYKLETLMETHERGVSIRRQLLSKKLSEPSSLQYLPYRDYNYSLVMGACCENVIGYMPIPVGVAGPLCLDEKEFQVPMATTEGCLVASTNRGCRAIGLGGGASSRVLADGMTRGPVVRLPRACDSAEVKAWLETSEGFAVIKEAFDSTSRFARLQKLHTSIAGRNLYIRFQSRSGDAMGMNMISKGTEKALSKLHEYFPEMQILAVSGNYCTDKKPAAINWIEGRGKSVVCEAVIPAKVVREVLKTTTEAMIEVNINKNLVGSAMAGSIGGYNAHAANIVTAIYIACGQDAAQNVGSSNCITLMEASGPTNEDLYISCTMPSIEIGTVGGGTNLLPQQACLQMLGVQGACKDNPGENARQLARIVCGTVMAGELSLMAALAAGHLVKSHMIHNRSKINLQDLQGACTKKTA

[4] = DRUGMATRIX: Leukotriene, BLT (LTB4) radioligand binding (ligand: [3H]LTB4); type: cell membranes, Membrane; settings: u-937; Not Active = under 50% inhibition at 10 µM
[5] = DRUGMATRIX: Nicotinic Acetylcholine radioligand binding (ligand: [125I] Epibatidine); type: cell membranes, Membrane; settings: imr-32; Not Active = under 50% inhibition at 10 µM
[6] = biological target: Kappa-type opioid receptor (Homo sapiens, UniProt P41145); assay: DRUGMATRIX: Opiate kappa (OP2, KOP) radioligand binding (ligand: [3H] Diprenorphine); type: cell membranes, HEK293, Membrane; settings: hek293; Not Active = under 50% inhibition at 10 µM
Kappa-type opioid receptor, sequence (P41145 whole entry): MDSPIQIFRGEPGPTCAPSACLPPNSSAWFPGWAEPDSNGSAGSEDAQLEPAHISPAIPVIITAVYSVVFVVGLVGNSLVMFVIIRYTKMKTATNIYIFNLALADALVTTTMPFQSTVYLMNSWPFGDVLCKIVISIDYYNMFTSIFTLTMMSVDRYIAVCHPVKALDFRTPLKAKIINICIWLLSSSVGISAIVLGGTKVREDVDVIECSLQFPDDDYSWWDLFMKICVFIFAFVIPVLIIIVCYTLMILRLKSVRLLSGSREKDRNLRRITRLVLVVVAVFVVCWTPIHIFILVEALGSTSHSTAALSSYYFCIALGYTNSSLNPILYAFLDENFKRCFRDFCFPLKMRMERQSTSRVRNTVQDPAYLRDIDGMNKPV

Interstitial collagenase = biological target: T2, Interstitial collagenase (Homo sapiens, UniProt P03956); assay: biochemical; type: tissue-based, Rheumatoid synovial fibroblasts;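 also: MMP-1 enzyme inhibition assay using a peptide substrate; in other assays of this panel Not Active means under 50% inhibition at 10 µM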
T2 sequence (P03956 whole entry): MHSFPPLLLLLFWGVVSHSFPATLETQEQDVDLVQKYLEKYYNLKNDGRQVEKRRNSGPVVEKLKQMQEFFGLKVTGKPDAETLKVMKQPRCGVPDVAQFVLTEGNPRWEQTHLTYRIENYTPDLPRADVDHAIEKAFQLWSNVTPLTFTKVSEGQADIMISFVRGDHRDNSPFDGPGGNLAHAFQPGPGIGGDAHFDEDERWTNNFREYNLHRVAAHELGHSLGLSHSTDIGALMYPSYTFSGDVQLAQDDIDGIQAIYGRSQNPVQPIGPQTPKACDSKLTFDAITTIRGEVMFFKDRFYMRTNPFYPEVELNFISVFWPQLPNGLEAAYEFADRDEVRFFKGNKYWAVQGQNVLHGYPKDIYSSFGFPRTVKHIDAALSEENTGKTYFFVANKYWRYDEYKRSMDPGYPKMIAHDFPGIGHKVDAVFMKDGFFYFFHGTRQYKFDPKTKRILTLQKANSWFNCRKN

With C[C@H]1COc2c(N3CCN(C)CC3)c(F)cc3c(=O)c(C(=O)O)cn1c23.C[C@H]1COc2c(N3CCN(C)CC3)c(F)cc3c(=O)c(C(=O)O)cn1c23.O [LEVOFLOXACIN] the IC50 [1] was “Not Active”, the Ki [1] was “Not Active” and the IC50 [2] was “Not Active”. The Ki [2] was “Not Active”, the IC50 [3] was “Not Active” and the IC50 [4] was “Not Active”. The Ki [4] was “Not Active”, the IC50 [5] was “Not Active” and the Ki [5] was “Not Active”. For the same compound, the IC50 [6] was “Not Active” and the IC50 (Interstitial collagenase) was “Not Active”.
In the case of CCn1cc(C(=O)O)c(=O)c2cc(F)c(N3CCNC(C)C3)c(F)c21 (stereo not given) [LOMEFLOXACIN], the IC50 [1] is reported as “Not Active”, the Ki [1] is reported as “Not Active” and the IC50 [2] is reported as “Not Active”. The Ki [2] was “Not Active”, the IC50 [3] was “Not Active” and the IC50 [4] was “Not Active”. For the same compound, the Ki [4] was “Not Active”, the IC50 [5] was “Not Active” and the Ki [5] was “Not Active”. The IC50 [6] was “Not Active” and the IC50 (Interstitial collagenase) was “Not Active”.
With CN1CCCC(CN2c3ccccc3Sc3ccccc32)C1 (stereo not given) [MEPAZINE] the IC50 [1] was “Not Active”, the Ki [1] was “Not Active” and the IC50 [2] was “Not Active”. For the same compound, the Ki [2] was “Not Active”, the IC50 [3] was “Not Active” and the IC50 [4] was “Not Active”. The Ki [4] was “Not Active”, the IC50 [5] was “Not Active” and the Ki [5] was “Not Active”. The IC50 [6] was “Not Active” and the IC50 (Interstitial collagenase) was “Not Active”.
With Cc1cccc(C)c1NC(=O)C1CCCCN1C (stereo not given) [MEPIVACAINE] the IC50 [1] was “Not Active”, the Ki [1] was “Not Active” and the IC50 [2] was “Not Active”. The Ki [2] was “Not Active”, the IC50 [3] was “Not Active” and the IC50 [4] was “Not Active”. For the same compound, the Ki [4] was “Not Active”, the IC50 [5] was “Not Active” and the Ki [5] was “Not Active”. For the same compound, the IC50 [6] was “Not Active” and the IC50 (Interstitial collagenase) was “Not Active”.
For CN(C)C(=N)NC(=N)N [METFORMIN], the IC50 [1] was “Not Active”, the Ki [1] was “Not Active” and the IC50 [2] was “Not Active”. The Ki [2] was “Not Active”, the IC50 [3] was “Not Active” and the IC50 [4] was “Not Active”. For the same compound, the Ki [4] was “Not Active”, the IC50 [5] was “Not Active” and the Ki [5] was “Not Active”. For the same compound, the IC50 [6] was “Not Active” and the IC50 (Interstitial collagenase) was “Not Active”.
For CC(C)(C)NCC(O)COc1cccc2c1CC(O)C(O)C2 (stereo not given) [NADOLOL], the IC50 [1] was “Not Active”, the Ki [1] was “Not Active” and the IC50 [2] was “Not Active”. The Ki [2] was “Not Active”, the IC50 [3] was “Not Active” and the IC50 [4] was “Not Active”. The Ki [4] was “Not Active”, the IC50 [5] was “Not Active” and the Ki [5] was “Not Active”. The IC50 [6] was “Not Active” and the IC50 (Interstitial collagenase) was “Not Active”.
In the case of C[C@@H]1C/C=C/C=C/C=C/C=C/[C@H](O[C@@H]2O[C@H](C)[C@@H](O)[C@H](N)[C@@H]2O)C[C@@H]2O[C@](O)(C[C@@H](O)C[C@H]3O[C@@H]3/C=C/C(=O)O1)C[C@H](O)[C@H]2C(=O)O [NATAMYCIN], the IC50 [1] is reported as “Not Active”, the Ki [1] is reported as “Not Active” and the IC50 [2] is reported as “Not Active”. For the same compound, the Ki [2] was “Not Active”, the IC50 [3] was “Not Active” and the IC50 [4] was “Not Active”. The Ki [4] was “Not Active”, the IC50 [5] was “Not Active” and the Ki [5] was “Not Active”. For the same compound, the IC50 [6] was “Not Active” and the IC50 (Interstitial collagenase) was “Not Active”.
In the case of NC(=O)c1cccnc1 [NIACINAMIDE], the IC50 [1] is reported as “Not Active”, the Ki [1] is reported as “Not Active” and the IC50 [2] is reported as “Not Active”. For the same compound, the Ki [2] was “Not Active”, the IC50 [3] was “Not Active” and the IC50 [4] was “Not Active”. The Ki [4] was “Not Active”, the IC50 [5] was “Not Active” and the Ki [5] was “Not Active”. For the same compound, the IC50 [6] was “Not Active” and the IC50 (Interstitial collagenase) was “Not Active”.
With CS(=O)(=O)Nc1ccc([N+](=O)[O-])cc1Oc1ccccc1 [NIMESULIDE] the IC50 [1] was “Not Active”, the Ki [1] was “Not Active” and the IC50 [2] was “Not Active”. For the same compound, the Ki [2] was “Not Active”, the IC50 [3] was “Not Active” and the IC50 [4] was “Not Active”. For the same compound, the Ki [4] was “Not Active”, the IC50 [5] was “Not Active” and the Ki [5] was “Not Active”. For the same compound, the IC50 [6] was “Not Active” and the IC50 (Interstitial collagenase; read-out: IC50) was 23.3 µM.
In the case of CN1C(=O)CN=C(c2ccccc2)c2cc([N+](=O)[O-])ccc21 [NIMETAZEPAM], the IC50 [1] is reported as “Not Active”, the Ki [1] is reported as “Not Active” and the IC50 [2] is reported as “Not Active”. The Ki [2] was “Not Active”, the IC50 [3] was “Not Active” and the IC50 [4] was “Not Active”. For the same compound, the Ki [4] was “Not Active”, the IC50 [5] was “Not Active” and the Ki [5] was “Not Active”. The IC50 [6] was “Not Active” and the IC50 (Interstitial collagenase) was “Not Active”.
